Source: patent US20160367578A1, “METHODS AND COMPOSITIONS FOR ERADICATING LEUKEMIC CELLS” (priority 2013, published 2016)

Tests used:
[1] = system: normal bone marrow cells; assay: Co-culture viability with enoxolone, normal bone marrow cells (myeloid vs. non-myeloid); assay type: cell-based; design: dose or concentration left out as unconfirmed; conditions: […] μM, 20 hours
Protocol: (§1) Primary MLL-AF9^LKS acute myeloid leukemia cells (red bars) were co-cultured with normal BM mononuclear cells (blue bars). Cells in co-culture were exposed to enoxolone for 20 hours (at 0, 5, 20, 50, 100 and 200 μM) and then cell viability was analyzed by flow cytometry (live leukemia cells=GFP+/7AAD−; live normal cells=GFP−/7AAD−).
Cells in co-culture were exposed to enoxolone for 20 hours (at 0, 5, 20, 50, 100 and 200 μM).

[2] = system: Primary MLL-AF9 LKS acute myeloid leukemia cells; assay: Co-culture viability with enoxolone, leukemia cells (GFP+/7AAD-); assay type: cell-based; conditions: 20 hours, 0, 5, 20, 50, 100 and 200 μM
Protocol: as §1

Question: Which results are given for `CC1(C)[C@@H](O)CC[C@]2(C)[C@H]3C(=O)C=C4[C@@H]5C[C@@](C)(C(=O)O)CC[C@]5(C)CC[C@@]4(C)[C@]3(C)CC[C@@H]12` [enoxolone, 18β-glycyrrhetinic acid]?
Answer: toxicity to normal non-myeloid cells [1]: toxic to normal non-myeloid cells; leukemia cell eradication in co-culture with normal BM mononuclear cells [2]: selective leukemia cell eradication
